The target in assay [1] is T1, human CB1 receptor (Homo sapiens, UniProt P21554).
T1 construct: expressed in transfected cells; host or cells: HEK293
As to the kind of experiment: bioSensAll β-arrestin2 plasma membrane translocation (+GRK2) BRET biosensor assay in HEK293 cells transfected with hCB1; test compound added before EC75-80 of agonist CP55,940 (100 nM). The class given is cell-based. Conditions: βArrestin2 (+GRK2) BRET biosensor, vs CP55,940 100 nM (EC75-80), read-out: CB1 wt βarr2 IC50. The gist of the method: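 HEK293 cells co-transfected with hCB1 and β-arrestin2 PM-translocation BRET biosensor (+GRK2); 48 h post-transfection in HBSS, test compound (0–600 nM, 12 points) added 3–5 min before CP55,940 at 100 nM (EC75-80). Overnight incubation at 37 °C; BRET (515/400 nm) read after 2 µM e-coelenterazine Prolume Purple, standardized to controls.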

Assay [2] has as its target T1, human CB1 receptor. Kind of assay: bioSensAll GAPL-Gi2 BRET biosensor assay in HEK293 cells transfected with hCB1; test compound added before EC75-80 of agonist CP55,940 (0.1 nM). The assay is classed as cell-based. The conditions noted are these: vs CP55,940 0.1 nM (EC75-80), read-out: CB1 wt Gi2 IC50. The method in brief: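 Test compounds at 12 doses up to 600 nM preceded a 0.1 nM CP55,940 challenge in hCB1/GAPL-Gi2 HEK293 cells. After overnight 37° C incubation, methoxy e-coelenterazine (2 µM final) was added and the 515/400 nm BRET ratio normalized to positive and negative controls.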
For orientation: In BRET a luciferase serves as donor, and the signal depends on an acceptor being close.

This is an account of results in patent US20250333418A1, “PURINE COMPOUNDS, COMPOSITIONS COMPRISING THEM AND USES THEREOF” (Novo Nordisk A/S, priority 2022, published 2025).

SMILES strings stand for the structures. pIC50: −log10 of the molar value.

T1 sequence (P21554 whole entry): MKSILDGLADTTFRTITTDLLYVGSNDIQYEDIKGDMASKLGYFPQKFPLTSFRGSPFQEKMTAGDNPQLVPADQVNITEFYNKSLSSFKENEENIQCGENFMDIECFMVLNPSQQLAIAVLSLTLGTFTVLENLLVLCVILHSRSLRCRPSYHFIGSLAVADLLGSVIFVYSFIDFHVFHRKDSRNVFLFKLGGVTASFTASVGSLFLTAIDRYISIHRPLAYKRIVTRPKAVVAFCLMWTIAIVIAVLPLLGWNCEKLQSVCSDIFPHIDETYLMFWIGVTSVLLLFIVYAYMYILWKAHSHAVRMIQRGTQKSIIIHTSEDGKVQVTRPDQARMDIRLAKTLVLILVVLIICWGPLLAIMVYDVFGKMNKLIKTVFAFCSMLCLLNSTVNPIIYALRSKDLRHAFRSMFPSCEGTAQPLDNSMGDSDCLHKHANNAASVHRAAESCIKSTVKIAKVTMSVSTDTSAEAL

The pIC50 is the IC50 on a negative log10 scale, so that one unit is a factor of ten. Turning to `COCCOc1nc(N2CCC(C(F)(F)F)CC2)c2nc(-c3ccccc3Cl)n(-c3ccc(Cl)cc3)c2n1` [Compound 27, 8-(2-chlorophenyl)-9-(4-chlorophenyl)-2-(2-methoxyethoxy)-6-[4-(trifluoromethyl)-1-piperidyl]purine], the pIC50 on human CB1 receptor [1] is 7.99; at human CB1 receptor [2], 8.82.

With `CN(C)C(=O)c1nc(N2CCC(C)(C(N)=O)CC2)c2nc(-c3ccccc3Cl)n(-c3ccc(Cl)cc3)c2n1` [Compound 2, 6-(4-carbamoyl-4-methyl-1-piperidyl)-8-(2-chlorophenyl)-9-(4-chlorophenyl)-N,N-dimethyl-purine-2-carboxamide], the results for the pIC50 at human CB1 receptor [1] and on human CB1 receptor [2] were 7.20 and 7.98, respectively.

In the case of `CN(CC1COC1)c1nc(-c2ccc(C(F)(F)F)nc2)c2nc(-c3ccccc3Cl)n(-c3ccc(Cl)cc3)c2n1` [Compound 125], the pIC50 is 7.79 on human CB1 receptor [1] and 8.30 on human CB1 receptor [2].

Take `CC(C)(O)COc1nc(-c2ccc(C(F)(F)F)nc2)c2nc(-c3ccccc3Cl)n(-c3ccc(Cl)cc3)c2n1` [Compound 123]: the pIC50 is 8.69 on human CB1 receptor [1] and 9.06 on human CB1 receptor [2].

On to `CC(C)(O)COc1nc(N2CC(C)(C#N)C2)c2nc(-c3ccc(C#N)nc3)n(-c3ccc(Cl)cc3)c2n1` [Compound 113, 5-[9-(4-chlorophenyl)-6-(3-cyano-3-methyl-azetidin-1-yl)-2-(2-hydroxy-2-methyl-propoxy)purin-8-yl]pyridine-2-carbonitrile], for which the pIC50 on human CB1 receptor [1] is 7.81; on human CB1 receptor [2] it was 8.15.

As to `CC(C)OC1(C(N)=O)CCN(c2nc(OCC(C)(C)O)nc3c2nc(-c2ccc(C#N)nc2)n3-c2ccc(Cl)cc2)CC1` [Compound 135], the results for the pIC50 on human CB1 receptor [1] and on human CB1 receptor [2] were 7.93 and 8.64, respectively.

In the case of `CC1(C(N)=O)CCN(c2nc(N3CC[C@H](O)C3)nc3c2nc(-c2ccccc2Cl)n3-c2ccc(Cl)cc2)CC1` [Compound 94, 1-[8-(2-chlorophenyl)-9-(4-chlorophenyl)-2-[(3S)-3-hydroxypyrrolidin-1-yl]purin-6-yl]-4-methyl-piperidine-4-carboxamide], the pIC50 on human CB1 receptor [1] is 8.62; on human CB1 receptor [2], 9.09.

With `CC(C)(O)COc1nc(N2CCC(C)(C(N)=O)CC2)c2nc(-c3ccccc3Cl)n(-c3ccccc3)c2n1` [Compound 95, 1-[8-(2-chlorophenyl)-2-(2-hydroxy-2-methyl-propoxy)-9-phenyl-purin-6-yl]-4-methyl-piperidine-4-carboxamide], the pIC50 was 7.14 at human CB1 receptor [1] and 7.89 on human CB1 receptor [2].

As for `CC1(C(N)=O)CCN(c2nc(C(=O)O)nc3c2nc(-c2ccccc2Cl)n3-c2ccc(Cl)cc2)CC1` [Compound 77, 6-(4-carbamoyl-4-methyl-1-piperidyl)-8-(2-chlorophenyl)-9-(4-chlorophenyl)purine-2-carboxylic acid], the pIC50 at human CB1 receptor [1] and at human CB1 receptor [2] was less than 5.30 each time.

Turning to `NC(=O)C1CN(c2nc(N3CCC[C@H]3CO)nc3c2nc(-c2ccccc2Cl)n3-c2ccc(Cl)cc2)C1` [Compound 237], the pIC50 is 8.71 on human CB1 receptor [1] and 9.21 at human CB1 receptor [2].

Consider `CC(C)(O)COc1nc(N2CCC(C)(C(N)=O)CC2)c2nc(-c3ccccc3Cl)n(-c3ccc(Cl)cc3)c2n1` [Compound 9, 1-[8-(2-chlorophenyl)-9-(4-chlorophenyl)-2-(2-hydroxy-2-methyl-propoxy)purin-6-yl]-4-methyl-piperidine-4-carboxamide], for which the pIC50 at human CB1 receptor [1] is 8.53; at human CB1 receptor [2] it was 9.40.

Turning to `CN1C[C@H](F)C[C@H]1COc1nc(N2CCC(C)(C(N)=O)CC2)c2nc(-c3ccccc3Cl)n(-c3ccc(Cl)cc3)c2n1` [Compound 228], the results for the pIC50 on human CB1 receptor [1] and at human CB1 receptor [2] were 8.64 and 8.92, respectively.

For the compound `CN(CC1(C)COC1)c1nc(-c2ccc(C(F)(F)F)nc2)c2nc(-c3ccccc3Cl)n(-c3ccc(Cl)cc3)c2n1` [Compound 126], the pIC50 is 7.68 at human CB1 receptor [1] and 8.09 on human CB1 receptor [2].

As for `CN(CCO)c1nc(NC2CCOCC2)c2nc(-c3ccccc3Cl)n(-c3ccc(Cl)cc3)c2n1` [Compound 178], the pIC50 at human CB1 receptor [1] was 8.39; at human CB1 receptor [2] it was 9.26.

Turning to `CC(C)(O)COc1nc(N2CCC(C)(C(N)=O)CC2)c2nc(-c3cccnc3)n(-c3ccc(Cl)cc3)c2n1` [Compound 103, 1-[9-(4-chlorophenyl)-2-(2-hydroxy-2-methyl-propoxy)-8-(3-pyridyl)purin-6-yl]-4-methyl-piperidine-4-carboxamide], the pIC50 at human CB1 receptor [1] was less than 5.30; on human CB1 receptor [2] it was 6.88.

As to `CN(CCO)c1nc(N2CC(C)(C(N)=O)C2)c2nc(-c3ccccc3Cl)n(-c3ccc(Cl)cc3)c2n1` [Compound 73], the pIC50 at human CB1 receptor [1] is 8.75; at human CB1 receptor [2] it was 9.25.

As for `CN(CCO)c1nc(N2CCC(C)(C(N)=O)CC2)c2nc(-c3ccncc3)n(-c3ccc(Cl)cc3)c2n1` [Compound 52, 1-[9-(4-chlorophenyl)-2-[2-hydroxyethyl(methyl)amino]-8-(4-pyridyl)purin-6-yl]-4-methyl-piperidine-4-carboxamide], the figures for the pIC50 on human CB1 receptor [1] and at human CB1 receptor [2] were 7.54 and 8.69, respectively.

Consider `CC(C)Oc1nc(OCC(C)(C)O)nc2c1nc(-c1ccccc1Cl)n2-c1ccc(Cl)cc1` [Compound 86], for which the results for the pIC50 at human CB1 receptor [1] and at human CB1 receptor [2] were 8.02 and 8.86, respectively.

For the compound `Cc1cccnc1-c1nc2c(N3CCC(C)(C(N)=O)CC3)nc(N(C)CCO)nc2n1-c1ccc(Cl)cc1` [Compound 51, 1-[9-(4-chlorophenyl)-2-[2-hydroxyethyl(methyl)amino]-8-(3-methyl-2-pyridyl)purin-6-yl]-4-methyl-piperidine-4-carboxamide], the pIC50 at human CB1 receptor [1] is 7.19; on human CB1 receptor [2] it was 8.00.

In the case of `CC1(C(N)=O)CCN(c2nc(-n3cnc(CCO)c3)nc3c2nc(-c2ccccc2Cl)n3-c2ccc(Cl)cc2)CC1` [Compound 47, 1-[8-(2-chlorophenyl)-9-(4-chlorophenyl)-2-[4-(2-hydroxyethyl)imidazol-1-yl]purin-6-yl]-4-methyl-piperidine-4-carboxamide], the pIC50 on human CB1 receptor [1] was 8.18; on human CB1 receptor [2] it was 8.73.

With `CC1(C(N)=O)CCN(c2nc(N3CCC[C@H]3CO)nc3c2nc(-c2ccccc2Cl)n3-c2ccc(Cl)cc2)CC1` [Compound 20, 1-[8-(2-chlorophenyl)-9-(4-chlorophenyl)-2-[(2S)-2-(hydroxymethyl)pyrrolidin-1-yl]purin-6-yl]-4-methyl-piperidine-4-carboxamide], the negative logarithm of the IC50 (pIC50) on human CB1 receptor [1] was 9.25; on human CB1 receptor [2], 9.59.

Take `CC1(C(N)=O)CCN(c2nc(OC[C@@H]3CCCN3)nc3c2nc(-c2ccccc2Cl)n3-c2ccc(Cl)cc2)CC1` [Compound 160, 1-[8-(2-chlorophenyl)-9-(4-chlorophenyl)-2-((2S)-pyrrolidinemethoxy)-purin-6-yl]-4-methyl-piperidine-4-carboxamide]: the pIC50 on human CB1 receptor [1] was 7.66; at human CB1 receptor [2] it was 9.06.

Take `CC1(C(N)=O)CCN(c2nc(-n3ccnc3CO)nc3c2nc(-c2ccccc2Cl)n3-c2ccc(Cl)cc2)CC1` [Compound 43, 1-[8-(2-chlorophenyl)-9-(4-chlorophenyl)-2-[2-(hydroxymethyl)imidazol-1-yl]purin-6-yl]-4-methyl-piperidine-4-carboxamide]: the results for the pIC50 at human CB1 receptor [1] and at human CB1 receptor [2] were 8.28 and 8.86, respectively.
